{"source": "paper PMC11232401", "about": "“Characterization of antimalarial activity of artemisinin-based hybrid drugs” (Antimicrobial Agents and Chemotherapy, 2024)", "key": {"P. falciparum Dd2 strain": {"tested_on": "P. falciparum Dd2 strain", "parameters": "method as in PMID 31290221, PMID 34832911, PMID 38559731", "details": "asynchronous culture, SYBR Green I; read-out: IC50 (nM, median ± SEM) for P. falciparum Dd2 strain; cited from earlier work"}, "P. berghei-infected mice": {"tested_on": "P. berghei-infected mice", "parameters": "method as in PMID 31290221, PMID 34832911, PMID 38559731", "details": "Peters test; cited from earlier work"}, "P. falciparum 3D7 strain": {"tested_on": "P. falciparum 3D7 strain", "parameters": "method as in PMID 31290221, PMID 34832911, PMID 38559731", "details": "asynchronous culture, SYBR Green I; read-out: IC50 (nM, median ± SEM) for P. falciparum 3D7 strain; cited from earlier work"}, "P. falciparum": {"tested_on": "P. falciparum", "experiment": "Parasite growth inhibition (cell potency)", "format": "cell-based", "details": "Plasmodium falciparum; strain and exposure not stated at the place"}, "[1]": {"tested_on": "heme (iron II)-initiated β-hematin formation", "experiment": "β-hematin inhibitory activity under reducing condition (R-BHIA)", "format": "biochemical", "details": "mean (95% CI)", "protocol": "The compounds were dissolved in DMSO and diluted in DMSO to six different concentrations (1.0–32 mM). Hemin (Fe^III[PPIX]Cl) (BioXtra, Sigma-Aldrich) was first dissolved in 0.1 M NaOH and then suspended in an 80:20 vol/vol mixture of DMSO and propionate buffer (0.1 M, pH 5.6) to a stock solution at 8 mM. Reduced glutathione (GSH) was dissolved in 0.1 M NaOH and then adjusted to 10 mM using propionate buffer (0.1 M, pH 5.6). […] Then, 20 µL of the drug was added, and the plates were incubated for 2 h at 37°C. The plastic film was removed after drug incubation, 160 µL propionate buffer (1.0 M, pH 5.6) was added, and plates were incubated for 18 h at 37°C. BHIA under the oxidizing condition (O-BHIA) was prepared in parallel without adding GSH. Controls included wells without drugs and wells containing PBS 1× instead of propionate buffer. Afterward, the plates were centrifuged, the supernatant was discarded, and the pellets of β-hematin crystals were washed twice with pure DMSO and then water. The resulting β-hematin crystals were then dissolved in 200 µL 0.1 M NaOH and diluted to a 1:8 ratio. Aliquots were then transferred into a new plate and read by UV-visible absorbance at […]. Percent of BHIA was calculated in comparison to untreated wells (no drugs), and IC50 was then calculated. Two independent experiments were performed using three replicates of each drug concentration ([46]).\n(§1) Figure S6: A summary of IC50 values derived from β-hematin inhibitory activity (BHIA). Footnotes for table: ^[a,b^] Values are mean and 95% confidence interval of one experiment, each concentration in triplicate. ^[a] Using heme (Fe[II]PPIX[Cl]) as a starting reagent. ^[b] Using hematin (Fe[III]PPIX[OH]) as a starting reagent. ^[c] […] CQ = chloroquine. R-BHIA = reducing β-hematin inhibitory activity. O-BHIA = oxidizing β-hematin inhibitory activity."}, "[2]": {"tested_on": "Ring stages of NF54 strain P. falciparum", "experiment": "Antiplasmodial activity of drug combinations (pLDH, isobologram/FIC)", "format": "cell-based", "details": "Plasmodium falciparum, mean (95% CI), tested in parallel with the combination of the same line", "protocol": "The activity of the drug combinations against the P. falciparum NF54 strain was determined as described above. In each experiment, drugs were tested alone and in combination. Twofold serial dilutions of the drug solutions were made using fixed molar ratios of 1:1, 1:3, and 3:1 for each combination and using two technical replicates (ranging from 200 to 1.0 nM). Parasite growth was determined by the pLDH method, as described above. IC50 values for each drug alone or in combination were determined, and an isobologram analysis was performed by plotting the fractional inhibitory concentrations (FIC) for each combination and its component drugs separately. Individual FIC values were calculated as the IC50 of the drug combination divided by the IC50 of the drug in isolation. A dashed line was plotted to indicate any additive effect and distinguish antagonism (above the dashed line) from synergism (below the dashed line). Three independent experiments were performed, each one containing two replicates. Each experiment was used to represent an isobologram analysis [mean and 95% confidence interval (CI)].\nValues represent one experiment; each concentration of drug combination was tested in technical duplicate. Black dashed line indicates ΣFIC = 1 (absolute additivity). […] FIC index <1 is synergistic, ~1 is additive, and >1 is antagonistic. Nondetrimental interactions are 0.25 <ΣFIC <1.25.\n^[a] Values are the mean and 95% confidence interval of one experiment for each concentration of compounds in duplicate."}, "[3]": {"tested_on": "hematin (iron III)-initiated β-hematin formation", "experiment": "β-hematin inhibitory activity under oxidizing condition (O-BHIA)", "format": "biochemical", "details": "hematin as starting reagent; mean (95% CI)", "protocol": "The compounds were dissolved in DMSO and diluted in DMSO to six different concentrations (1.0–32 mM). Hemin (Fe^III[PPIX]Cl) (BioXtra, Sigma-Aldrich) was first dissolved in 0.1 M NaOH and then suspended in an 80:20 vol/vol mixture of DMSO and propionate buffer (0.1 M, pH 5.6) to a stock solution at 8 mM. Reduced glutathione (GSH) was dissolved in 0.1 M NaOH and then adjusted to 10 mM using propionate buffer (0.1 M, pH 5.6). For β-hematin inhibitory activity (BHIA) under the reducing condition (R-BHIA), hemin (10 µL) and GSH (10 µL) were distributed in a 96-well plate and homogenized, and the plates were sealed using a thin plastic film and incubated for 1 h at 37°C. Then, 20 µL of the drug was added, and the plates were incubated for 2 h at 37°C. The plastic film was removed after drug incubation, 160 µL propionate buffer (1.0 M, pH 5.6) was added, and plates were incubated for 18 h at 37°C. BHIA under the oxidizing condition (O-BHIA) was prepared in parallel without adding GSH. Controls included wells without drugs and wells containing PBS 1× instead of propionate buffer. Afterward, the plates were centrifuged, the supernatant was discarded, and the pellets of β-hematin crystals were washed twice with pure DMSO and then water. The resulting β-hematin crystals were then dissolved in 200 µL 0.1 M NaOH and diluted to a 1:8 ratio. Aliquots were then transferred into a new plate and read by UV-visible absorbance at […]. Percent of BHIA was calculated in comparison to untreated wells (no drugs), and IC50 was then calculated. Two independent experiments were performed using three replicates of each drug concentration ([46]).\nas §1"}, "[4]": {"tested_on": "ring stages of NF54 strain of P. falciparum", "experiment": "Exposure time dependence in drug activity (pLDH)", "format": "cell-based", "details": "Plasmodium falciparum", "protocol": "Each well of 96-well plates was filled with 100 µL drug and 100 µL culture containing ring-stage P. falciparum (NF54 strain) parasites, which were mixed to obtain a final parasitemia of 1.0% to 1.5% and 1.0% hematocrit. Plates were incubated at 37°C in a standard gas mixture. After 3 h and 6 h, plates were centrifuged, cell pellets were washed as described above then returned to the incubator for an additional 69 h and 66 h, respectively. In parallel, the same experiment was left without the washing step, enabling continuous drug exposure throughout. Plates were processed using the pLDH method, and IC50 values were calculated as described above. Three independent experiments were performed using two technical replicates.\nFigure S2: Exposure time dependence of antiparasitic activity against ring stages of CQ-sensitive strain NF54 of P. falciparum. Data associated to Figure 2B in the main text of the manuscript. Footnotes for table: ^[a] Synchronized ring-stage parasites were incubated in the presence of compounds at indicated times, drugs were removed by washing, and plates were incubated until 72 h.^[b] Parasites were incubated in the presence of compounds for 72 h. ^[a,b^] Experiments were performed in parallel (paired). Parasite viability was determined by parasite lactate dehydrogenase (pLDH) assay. Data are from three experiments performed in duplicate.^ [c] […] MFQ = mefloquine. DHA = dihydroartemisinin; SEM = standard error of the mean; N.S. = not statistically significant."}, "[5]": {"tested_on": "NF54 strain of P. falciparum", "experiment": "Ring-stage-specific drug activity (pLDH)", "format": "cell-based", "details": "Plasmodium falciparum, median ± SEM", "protocol": "Each compound was dissolved in dimethyl sulfoxide (DMSO) and diluted in RPMI-1640 medium into seven different concentrations, which were tested against CQ-susceptible strains (NF54 or D10) or a CQ-resistant strain (W2). Each well of 96-well plates was filled with 100 µL drug and 100 µL parasitized RBC (asynchronous parasite culture), which were mixed to obtain a final parasitemia of 1.0% to 1.5% and 1.0% hematocrit. Plates were incubated for 72 h at 37°C in a standard gas mixture; then, parasite growth was determined by measuring the activity of the parasite lactate dehydrogenase (pLDH) ([38]). Briefly, at the end of incubation, the cultures were carefully resuspended, and 20 µL aliquots were removed and added to 100 µL Malstat reagent in a 96-well microplate. The Malstat reagent is made of 0.125% TritonX-100, 130 mM L-lactate, 30 mM Tris buffer, and 0.62 µM 3-acetylpyridine adenine dinucleotide. After that, 20 µL 1.9 µM nitro blue tetrazolium (NBT) and 0.24 µM phenazine ethyl sulfate were added to the plate. NBT was reduced to blueformazan and spectrophotometrically read at OD 650 nm using a Synergy 4 microplate reader (BioTek, Santa Clara, USA). […] IC50 values were expressed as means of two to three independent experiments, with each drug concentration in duplicate.\nThe NF54 strain of P. falciparum was employed to test the drugs’ activity against ring stages and asynchronous parasite culture (all stages). The ring stages were obtained by synchronization with D-Sorbitol using a standard method ([39]). Each well of 96-well plates was filled with 100 µL each drug and 100 µL culture containing ring-stage or asynchronous parasites, which were mixed to obtain a final parasitemia of 1.0% to 1.5% and 1.0% hematocrit. […] Plates were processed using the pLDH method, and IC50 values were calculated as described above. At least two to three independent experiments were performed, using two technical replicates.\n^[a] Synchronized ring-stage parasites were incubated in the presence of compounds for 6 h, drugs were removed by washing, and plates were incubated for an additional 66 h. ^[b] Asynchronous parasites were incubated in the presence of compounds for 6 h, drugs were removed by washing, and plates were incubated for an additional 66 h. ^[c] Asynchronous parasites were incubated in the presence of compounds for 72 h. ^[a,b^] Experiments were performed in parallel. ^[d] […] Parasite viability was determined by parasite lactate dehydrogenase. Data are from three experiments performed in duplicate. MFQ = mefloquine; DHA = dihydroartemisinin; SEM = standard error of the mean."}, "[6]": {"details": "in vivo; cited from earlier work"}}, "note": "Where two headings read alike, the source gives them in different places."}
{"smiles": "C[C@@H]1CC[C@H]2[C@@H](C)C(=O)O[C@@H]3O[C@@]4(C)CC[C@@H]1[C@]32OO4", "note": "[ART, artemisinin]", "values": [{"measurement": "IC50", "setting": "P. falciparum Dd2 strain", "value": "11.3 ± 1.8", "unit": "nM"}, {"measurement": "In vivo parasitemia reduction (%)", "setting": "P. berghei-infected mice", "value": "78.5 ± 9.0", "unit": "%"}, {"measurement": "IC50", "setting": "P. falciparum 3D7 strain", "value": "26.8 ± 2.4", "unit": "nM"}]}
{"smiles": "CCN(CC)CCCC(C)Nc1ccnc2cc(Cl)ccc12", "note": "(stereo not drawn) [CQ, chloroquine, reference compound]", "values": [{"measurement": "IC50", "setting": "P. falciparum", "value": 0.0145, "unit": "µM"}, {"measurement": "IC50", "setting": "P. falciparum Dd2 strain", "value": "165 ± 16", "unit": "nM"}, {"measurement": "IC50", "setting": "[1]; reductive step 10 minutes, read-out: IC50 (µM) values of R-BHIA using heme (iron II), 10 minutes", "value": 189, "unit": "µM"}, {"measurement": "IC50", "setting": "[1]; reductive step 120 minutes, read-out: IC50 (µM) values of R-BHIA using heme (iron II), 120 minutes", "value": 222, "unit": "µM"}, {"measurement": "IC50", "setting": "[2]; NF54, read-out: IC50, Drugs alone, ring stages NF54", "value": 0.0104, "unit": "µM"}, {"measurement": "IC50", "setting": "[3]", "value": 228, "unit": "µM"}, {"measurement": "IC50", "setting": "P. falciparum 3D7 strain", "value": "12.7 ± 2.5", "unit": "nM"}]}
{"smiles": "OC(c1cc(C(F)(F)F)nc2c(C(F)(F)F)cccc12)C1CCCCN1", "note": "(stereo not drawn) [MFQ, mefloquine, reference compound]", "values": [{"measurement": "IC50", "setting": "[4]; NF54, 6 h drug pulse, wash, incubated until 72 h, median ± SEM, read-out: IC50, 6 h + 66 h", "value": "0.0372 ± 0.0052", "unit": "µM"}, {"measurement": "IC50", "setting": "[4]; NF54, 72 h continuous drug, median ± SEM, read-out: IC50, 72 h", "value": "0.0103 ± 0.0026", "unit": "µM"}, {"measurement": "IC50", "setting": "[4]; NF54, read-out: IC50, 3 h + 69 h, 3 h drug pulse, wash, incubated until 72 h, median ± SEM", "value": "> 0.6", "unit": "µM"}, {"measurement": "IC50", "setting": "[2]; NF54, ring stages NF54, read-out: IC50, Drugs alone", "value": 0.017, "unit": "µM"}, {"measurement": "IC50", "setting": "[5]; asynchronous parasites, 6 h drug, wash, additional 66 h, read-out: IC50, Asynchronous", "value": "0.0616 ± 0.0119", "unit": "µM"}, {"measurement": "IC50", "setting": "[5]; asynchronous parasites, 72 h continuous drug, read-out: IC50, 72 h", "value": "0.0202 ± 0.0013", "unit": "µM"}, {"measurement": "IC50", "setting": "[5]; synchronized ring stages, 6 h drug, wash, additional 66 h, read-out: IC50, Ring stages", "value": "0.0372 ± 0.0052", "unit": "µM"}]}
{"smiles": "CC(C)(N)CNC(=O)C[C@H]1CC[C@]2(CC1)OO[C@]1(O2)C2CC3CC(C2)CC1C3", "note": "[OZ277]", "values": [{"measurement": "half-life (t1/2)", "setting": "[6]", "value": "2 to 4", "unit": "h"}]}
